Results as given in patent US8530667B2, “Herbicides” (Syngenta Limited, priority 2007, dated 2013).

How the values were obtained:
Format in all cases: in vivo
[1] = test system: Echinochloa crus-galli (ECHCG); assay: Example A post-emergence herbicidal activity, glasshouse pot test; conditions: Rate 125 g/ha, evaluated 14 or 15 days later, read-out: Post-Emergence Activity ECHCG (100=total damage to plant; 0=no damage to plant)
Description: (§1) Seeds of a variety of test species were sown in standard soil in pots. After cultivation for one day (pre-emergence) or after 10 days cultivation (post-emergence) under controlled conditions in a glasshouse, the plants were sprayed with an aqueous spray solution derived from the formulation of the technical active ingredient in 0.6 ml acetone and 45 ml formulation solution containing 10.6% Emulsogen EL (Registry number 61791-12-6), 42.2% N-methylpyrrolidone, 42.2% dipropylene glycol monomethyl ether (Registry number 34590-94-8) and 0.2% X-77 (Registry number 11097-66-8). The test plants were then grown in a greenhouse under optimum conditions until, 14 or 15 days later for post-emergence and 19 or 20 days for pre-emergence, the test was evaluated (100=total damage to plant; 0=no damage to plant). Alopecurus myosuroides (ALOMY), Avena fatua (AVEFA), Lolium perenne (LOLPE), Setaria faberi (SETFA), Digitaria sanguinalis (DIGSA), Echinochloa crus-galli (ECHCG)

[2] = test system: Digitaria sanguinalis (DIGSA); assay: as above; conditions: Rate 125 g/ha, evaluated 14 or 15 days later, read-out: Post-Emergence Activity DIGSA (100=total damage to plant; 0=no damage to plant)
Description: as §1

[3] = test system: Alopecurus myosuroides (ALOMY); assay: as above; conditions: Rate 125 g/ha, evaluated 14 or 15 days later, read-out: Post-Emergence Activity ALOMY (100=total damage to plant; 0=no damage to plant)
Description: as §1

Lolium perenne (LOLPE) [4] = assay: as above; conditions: Rate 125 g/ha, evaluated 14 or 15 days later, read-out: Post-Emergence Activity LOLPE (100=total damage to plant; 0=no damage to plant)
Description: as §1

Avena fatua (AVEFA) [5] = assay: as above; conditions: Rate 125 g/ha, evaluated 14 or 15 days later, read-out: Post-Emergence Activity AVEFA (100=total damage to plant; 0=no damage to plant)
Description: as §1

Setaria faberi (SETFA) [6] = assay: as above; conditions: Rate 125 g/ha, evaluated 14 or 15 days later, read-out: Post-Emergence Activity SETFA (100=total damage to plant; 0=no damage to plant)
Description: as §1

[7] = test system: Echinochloa crus-galli (ECHCG); assay: Example A pre-emergence herbicidal activity, glasshouse pot test; conditions: evaluated 19 or 20 days later, read-out: Pre-Emergence Activity ECHCG (100=total damage to plant; 0=no damage to plant); for pest or weed control at 250 g/ha: Rate 250 g/ha; for pest or weed control at 500 g/ha: Rate 500 g/ha
Description: as §1

[8] = test system: Digitaria sanguinalis (DIGSA); assay: as above; conditions: evaluated 19 or 20 days later, read-out: Pre-Emergence Activity DIGSA (100=total damage to plant; 0=no damage to plant); for pest or weed control at 250 g/ha: Rate 250 g/ha; for pest or weed control at 500 g/ha: Rate 500 g/ha
Description: as §1

[9] = test system: Alopecurus myosuroides (ALOMY); assay: as above; conditions: evaluated 19 or 20 days later, read-out: Pre-Emergence Activity ALOMY (100=total damage to plant; 0=no damage to plant); for pest or weed control at 250 g/ha: Rate 250 g/ha; for pest or weed control at 500 g/ha: Rate 500 g/ha
Description: as §1

Lolium perenne (LOLPE) [10] = assay: as above; conditions: evaluated 19 or 20 days later, read-out: Pre-Emergence Activity LOLPE (100=total damage to plant; 0=no damage to plant); for pest or weed control at 250 g/ha: Rate 250 g/ha; for pest or weed control at 500 g/ha: Rate 500 g/ha
Description: as §1

Avena fatua (AVEFA) [11] = assay: as above; conditions: evaluated 19 or 20 days later, read-out: Pre-Emergence Activity AVEFA (100=total damage to plant; 0=no damage to plant); for pest or weed control at 250 g/ha: Rate 250 g/ha; for pest or weed control at 500 g/ha: Rate 500 g/ha
Description: as §1

Setaria faberi (SETFA) [12] = assay: as above; conditions: evaluated 19 or 20 days later, read-out: Pre-Emergence Activity SETFA (100=total damage to plant; 0=no damage to plant); for pest or weed control at 250 g/ha: Rate 250 g/ha; for pest or weed control at 500 g/ha: Rate 500 g/ha
Description: as §1

For Cc1csc(C)c1C1C(=O)[C@@H]2[C@H](C1=O)[C@H]1CC[C@@H]2O1 (stereo partly drawn) [Compound T10], the pest or weed control at 125 g/ha [1] was 60%, the pest or weed control at 125 g/ha [2] was 40% and the pest or weed control at 125 g/ha [3] was 10%. It also gave a pest or weed control at 125 g/ha (Lolium perenne (LOLPE) [4]) of 20%, a pest or weed control at 125 g/ha (Avena fatua (AVEFA) [5]) of 40% and a pest or weed control at 125 g/ha (Setaria faberi (SETFA) [6]) of 60%. For the same compound, the pest or weed control at 250 g/ha [7] was 30%, the pest or weed control at 250 g/ha [8] was 30% and the pest or weed control at 250 g/ha [9] was 10%. For the same compound, the pest or weed control at 250 g/ha (Lolium perenne (LOLPE) [10]) was 20%, the pest or weed control at 250 g/ha (Avena fatua (AVEFA) [11]) was 10% and the pest or weed control at 250 g/ha (Setaria faberi (SETFA) [12]) was 0%.

In the case of CCc1c(Br)sc(C)c1C1C(=O)[C@@H]2[C@H](C1=O)[C@H]1CC[C@@H]2O1 (stereo partly drawn) [Compound T14, 4-(5-bromo-4-ethyl-2-methyl-thiophen-3-yl)-10-oxa-tricyclo[5.2.1.0*2,6*]decane-3,5-dione], the pest or weed control at 125 g/ha [1] is reported as 100%, the pest or weed control at 125 g/ha [2] is reported as 60% and the pest or weed control at 125 g/ha [3] is reported as 90%. For the same compound, the pest or weed control at 125 g/ha (Lolium perenne (LOLPE) [4]) was 80%, the pest or weed control at 125 g/ha (Avena fatua (AVEFA) [5]) was 100% and the pest or weed control at 125 g/ha (Setaria faberi (SETFA) [6]) was 80%. It also gave a pest or weed control at 250 g/ha [7] of 90%, a pest or weed control at 250 g/ha [8] of 70% and a pest or weed control at 250 g/ha [9] of 90%. The pest or weed control at 250 g/ha (Lolium perenne (LOLPE) [10]) was 100%, the pest or weed control at 250 g/ha (Avena fatua (AVEFA) [11]) was 60% and the pest or weed control at 250 g/ha (Setaria faberi (SETFA) [12]) was 100%.

Cc1sc(-c2ccc(Cl)cc2)cc1C1C(=O)[C@@H]2[C@H](C1=O)[C@H]1CC[C@@H]2O1 (stereo partly drawn) [Compound T12] gave a pest or weed control at 125 g/ha [1] of 80%, a pest or weed control at 125 g/ha [2] of 80% and a pest or weed control at 125 g/ha [3] of 80%. The pest or weed control at 125 g/ha (Lolium perenne (LOLPE) [4]) was 30%, the pest or weed control at 125 g/ha (Avena fatua (AVEFA) [5]) was 80% and the pest or weed control at 125 g/ha (Setaria faberi (SETFA) [6]) was 70%. The pest or weed control at 500 g/ha [7] was 30%, the pest or weed control at 500 g/ha [8] was 0% and the pest or weed control at 500 g/ha [9] was 10%. It also gave a pest or weed control at 500 g/ha (Lolium perenne (LOLPE) [10]) of 10%, a pest or weed control at 500 g/ha (Avena fatua (AVEFA) [11]) of 20% and a pest or weed control at 500 g/ha (Setaria faberi (SETFA) [12]) of 20%.

Cc1scc(Br)c1C1C(=O)[C@@H]2[C@H](C1=O)[C@H]1CC[C@@H]2O1 (stereo partly drawn) [Compound T4] gave a pest or weed control at 125 g/ha [1] of 80%, a pest or weed control at 125 g/ha [2] of 60% and a pest or weed control at 125 g/ha [3] of 10%. The pest or weed control at 125 g/ha (Lolium perenne (LOLPE) [4]) was 40%, the pest or weed control at 125 g/ha (Avena fatua (AVEFA) [5]) was 30% and the pest or weed control at 125 g/ha (Setaria faberi (SETFA) [6]) was 40%. For the same compound, the pest or weed control at 500 g/ha [7] was 70%, the pest or weed control at 500 g/ha [8] was 30% and the pest or weed control at 500 g/ha [9] was 70%. The pest or weed control at 500 g/ha (Lolium perenne (LOLPE) [10]) was 70%, the pest or weed control at 500 g/ha (Avena fatua (AVEFA) [11]) was 70% and the pest or weed control at 500 g/ha (Setaria faberi (SETFA) [12]) was 70%.

Cc1sc(-c2ccccn2)cc1C1C(=O)[C@@H]2[C@H](C1=O)[C@H]1CC[C@@H]2O1 (stereo partly drawn) [Compound T6] was tested, and the pest or weed control at 125 g/ha [1] was 30%, the pest or weed control at 125 g/ha [2] was 20% and the pest or weed control at 125 g/ha [3] was 10%. For the same compound, the pest or weed control at 125 g/ha (Lolium perenne (LOLPE) [4]) was 10%, the pest or weed control at 125 g/ha (Avena fatua (AVEFA) [5]) was 10% and the pest or weed control at 125 g/ha (Setaria faberi (SETFA) [6]) was 40%. The pest or weed control at 500 g/ha [7] was 0%, the pest or weed control at 500 g/ha [8] was 0% and the pest or weed control at 500 g/ha [9] was 0%. For the same compound, the pest or weed control at 500 g/ha (Lolium perenne (LOLPE) [10]) was 0%, the pest or weed control at 500 g/ha (Avena fatua (AVEFA) [11]) was 60% and the pest or weed control at 500 g/ha (Setaria faberi (SETFA) [12]) was 0%.

In the case of Cc1sc(-c2ccc(Cl)cc2)nc1C1C(=O)[C@@H]2[C@H](C1=O)[C@H]1CC[C@@H]2O1 (stereo partly drawn) [Compound T22], the pest or weed control at 125 g/ha [1] is reported as 100%, the pest or weed control at 125 g/ha [2] is reported as 100% and the pest or weed control at 125 g/ha [3] is reported as 70%. The pest or weed control at 125 g/ha (Lolium perenne (LOLPE) [4]) was 20%, the pest or weed control at 125 g/ha (Avena fatua (AVEFA) [5]) was 70% and the pest or weed control at 125 g/ha (Setaria faberi (SETFA) [6]) was 60%. It also gave a pest or weed control at 250 g/ha [7] of 100%, a pest or weed control at 250 g/ha [8] of 100% and a pest or weed control at 250 g/ha [9] of 100%. For the same compound, the pest or weed control at 250 g/ha (Lolium perenne (LOLPE) [10]) was 100%, the pest or weed control at 250 g/ha (Avena fatua (AVEFA) [11]) was 100% and the pest or weed control at 250 g/ha (Setaria faberi (SETFA) [12]) was 100%.
